From paper PMC11944884, “Bioactive Secondary Metabolites of Two Chinese Edible Boletes, Phlebopus portentosus and Butyriboletus roseoflavus” (Molecules, 2025) come the findings set out here.

Broadly, the inhibition is the change of the read-out against control, counted positive when it falls. A word on the IC50: it is the concentration needed to halve the response being measured. Usually EC50 stands for the concentration needed to bring the measured effect to its halfway point.

Experiment [1] has as its system influenza virus B/Victoria strain. Kind of experiment: microbe, parasite or virus in culture. It counts as cell-based. The note with it: MDCK cells.
For the next experiment, the system named is influenza virus A/H3N2. Kind of experiment: microbe, parasite or virus in culture. It counts as cell-based, influenza virus A (H3N2 strain). Particulars: MDCK cells.

For the molecule `NC(=O)c1ncn([C@@H]2O[C@H](CO)[C@@H](O)[C@H]2O)n1` [Ribavirin, reference compound], the inhibition at 3.13 µM was determined as 0% in experiment [1] (B/Victoria strain, 3.13 μM, read-out: CPE inhibition) and 3.3% in the experiment with influenza virus A/H3N2 (Influenza A virus, A/H3N2 strain, 3.13 μM, read-out: CPE inhibition). In addition, the inhibition at 6.25 µM in experiment [1] (B/Victoria strain, 6.25 μM, read-out: CPE inhibition) was found to be 0%; in the experiment on influenza virus A/H3N2 (Influenza A virus, A/H3N2 strain, 6.25 μM, read-out: CPE inhibition) it was 0%. Besides, the inhibition at 12.5 µM in experiment [1] (B/Victoria strain, 12.5 μM, read-out: CPE inhibition) came to 25%; with influenza virus A/H3N2 (Influenza A virus, A/H3N2 strain, 12.5 μM, read-out: CPE inhibition) it was 10%. The inhibition at 25 µM in experiment [1] (B/Victoria strain, 25 μM, read-out: CPE inhibition) came to 62.5%; with influenza virus A/H3N2 (Influenza A virus, A/H3N2 strain, 25 μM, read-out: CPE inhibition), 50.5%. Moreover, the inhibition at 50 µM came to 75% in experiment [1] (B/Victoria strain, 50 μM, read-out: CPE inhibition) and 75% in the experiment with influenza virus A/H3N2 (Influenza A virus, A/H3N2 strain, 50 μM, read-out: CPE inhibition). Moreover, the inhibition at 100 µM in experiment [1] (B/Victoria strain, 100 μM, read-out: CPE inhibition) was found to be 100%; in the experiment with influenza virus A/H3N2 (Influenza A virus, A/H3N2 strain, 100 μM, read-out: CPE inhibition), 100%. Further, the IC50 was 20.6 µM in experiment [1] (B/Victoria strain, Table S5, read-out: IC50) and 28.3 µM with influenza virus A/H3N2 (Influenza A virus, A/H3N2 strain, Table S5, read-out: IC50). Also, the EC50 in experiment [1] (influenza virus B (Victoria strain), read-out: EC50) came to 20.6 µM; in the experiment on influenza virus A/H3N2 (influenza virus A (H3N2 strain), read-out: EC50), 28.3 µM.
